Data set [1] relates to Puccinia recondita. Briefly: In vivo preventive test on Puccinia recondita (brown rust on wheat). The note with it: wheat plants, preventive spray, 500 ppm, grading 12 days after contamination. On the procedure:
Example: In Vivo Preventive Test on Puccinia recondita (Brown Rust on Wheat) […] Wheat plants (“Scipion” variety), sown in starter cups on a 50/50 peat soil-pozzolana substrate and grown at 22° C., are treated at the 1-leaf stage (10 cm height) by spraying with the active ingredient prepared as described above. Plants, used as controls, are treated with the mixture of acetone/tween/DMSO/water not containing the active material. After 24 hours, the plants are contaminated by spraying the leaves with an aqueous suspension of Puccinia […] spores (100 000 spores per ml). […] Grading (% of efficacy) is carried out 12 days after the contamination, in comparison with the control plants. Under these conditions, good (at least 70%) or total protection is observed at a dose of 500 ppm with the following compounds: […]

In data set [2] the test system is Septoria tritici. In words: In vivo preventive test on Septoria tritici (leaf spot on wheat). The following applies: wheat plants, preventive spray, 500 ppm, grading 24 days after contamination. On the procedure:
Example: In Vivo Preventive Test on Septoria tritici (Leaf Spot on Wheat) […] Wheat plants (“Scipion” variety), sown in starter cups on a 50/50 peat soil-pozzolana substrate and grown at 22° C., are treated at the 1-leaf stage (10 cm height) by spraying with the active ingredient prepared as described above. Plants, used as controls, are treated with the mixture of acetone/tween/DMSO/water not containing the active material. After 24 hours, the plants are contaminated by spraying the leaves with an aqueous suspension of cryopreserved Septoria tritici spores (500 000 spores per ml). […] Grading (% of efficacy) is carried out 24 days after the contamination, in comparison with the control plants. Under these conditions, good (at least 70%) or total protection is observed at a dose of 500 ppm with the following compounds: […]

The test system of data set [3] is Sphaerotheca fuliginea. Briefly: In vivo preventive test on Sphaerotheca fuliginea (powdery mildew on cucurbits). The following applies: gherkin plants, preventive spray, 500 ppm, grading 12 days after contamination. Here is the method:
Example: In Vivo Preventive Test on Sphaerotheca fuliginea (Powdery Mildew on Cucurbits) […] Gherkin plants (“Vert petit de Paris” variety), sown in starter cups on a 50/50 peat soil-pozzolana substrate and grown at 24° C., are treated at the Z11 cotyledon stage by spraying with the active ingredient prepared as described above. Plants, used as controls, are treated with the mixture of acetone/tween/DMSO/water not containing the active material. After 24 hours, the plants are contaminated by spraying the cotyledons with an aqueous suspension of Sphaerotheca fuliginea spores (100 000 spores per ml). The spores are collected from infected plants. […] Grading (% of efficacy) is carried out 12 days after the contamination, in comparison with the control plants. Under these conditions, good (at least 70%) or total protection is observed at a dose of 500 ppm with the following compounds: […]

The subject of data set [4] is Uromyces appendiculatus. In words: In vivo preventive test on Uromyces appendiculatus (bean rust). The following applies: bean plants, preventive spray, 500 ppm, grading 11 days after contamination. On the procedure: Example: In Vivo Preventive Test on Uromyces appendiculatus (Bean Rust) […] Bean plants (“Saxa” variety), sown in starter cups on a 50/50 peat soil-pozzolana substrate and grown at 24° C., are treated at the 2-leaf stage (9 cm height) by spraying with the active ingredient prepared as described above. Plants, used as controls, are treated with the mixture of acetone/tween/DMSO/water not containing the active material. After 24 hours, the plants are contaminated by spraying the leaves with an aqueous suspension of Uromyces appendiculatus spores (150 000 spores per ml). […] Grading (% of efficacy) is carried out 11 days after the contamination, in comparison with the control plants. Under these conditions, good (at least 70%) or total protection is observed at a dose of 500 ppm with the following compounds: […]

A short description of data set [5]: logP by HPLC on reversed phase columns (EEC directive 79/831 Annex V.A8). The note with it: method [a]: LC-MS at pH 2.7, 0.1% formic acid in water / acetonitrile gradient 10% to 95%.
For data set [6], the system named is Alternaria brassicae. Briefly: In vivo preventive test on Alternaria brassicae (leaf spot on radish). The note with it: radish plants, preventive spray, 500 ppm, grading 6 days after contamination. On the procedure:
Example: In Vivo Preventive Test on Alternaria brassicae (Leaf Spot on Radish) […] Radish plants (“Pernod Clair” variety), sown in starter cups on a 50/50 peat soil-pozzolana substrate and grown at 17° C., are treated at the cotyledon stage by spraying with the active ingredient prepared as described above. Plants, used as controls, are treated with the mixture of acetone/tween/DMSO/water not containing the active material. After 24 hours, the plants are contaminated by spraying the cotyledons with an aqueous suspension of Alternaria brassicae spores (50 000 spores per ml). The spores are collected from a 15-day-old culture. […] Grading (% of efficacy) is carried out 6 days after the contamination, in comparison with the control plants. Under these conditions, good (at least 70%) or total protection is observed at a dose of 500 ppm with the following compounds: […]

Data set [7] concerns Botrytis cinerea. In words: In vivo preventive test on Botrytis cinerea (grey mould). The note with it: gherkin plants, preventive spray, 500 ppm, grading 4 to 5 days after contamination. On the procedure:
Example: In Vivo Preventive Test on Botrytis cinerea (Grey Mould) […] Gherkin plants (“Vert petit de Paris” variety), sown in starter cups on a 50/50 peat soil-pozzolana substrate and grown at 24° C., are treated at the Z11 cotyledon stage by spraying with the active ingredient prepared as described above. Plants, used as controls, are treated with the mixture of acetone/tween/DMSO/water not containing the active material. After 24 hours, the plants are contaminated by spraying the cotyledons with an aqueous suspension of cryopreserved Botrytis cinerea spores (50 000 spores per ml). The spores are suspended in a nutrient solution composed of 10 g/L of PDB, 50 g/L of D-Fructose, 2 g/L of NH4NO3 and 1 g/L of KH2PO4. […] Grading (% of efficacy) is carried out 4 to 5 days after the contamination, in comparison with the control plants. Under these conditions, good (at least 70%) or total protection is observed at a dose of 500 ppm with the following compounds: […]

Data set [8] relates to Pyrenophora teres. Briefly: In vivo preventive test on Pyrenophora teres (net blotch on barley). The following applies: barley plants, preventive spray, 500 ppm, grading 14 days after contamination. Here is the method: Example: In Vivo Preventive Test on Pyrenophora teres (Net Blotch on Barley) […] Barley plants (“Plaisant” variety), sown in starter cups on a 50/50 peat soil-pozzolana substrate and grown at 22° C., are treated at the 1-leaf stage (10 cm height) by spraying with the active ingredient prepared as described above. Plants, used as controls, are treated with the mixture of acetone/tween/DMSO/water not containing the active material. After 24 hours, the plants are contaminated by spraying the leaves with an aqueous suspension of Pyrenophora teres spores (12 000 spores per ml). The spores are collected from a 12-day-old culture. […] Grading (% of efficacy) is carried out 14 days after the contamination, in comparison with the control plants. Under these conditions, good (at least 70%) or total protection is observed at a dose of 500 ppm with the following compounds: […]

In data set [9] the test system is Pyricularia oryzae. Format: in vivo. The following applies: rice plants, preventive spray, 500 ppm, grading 6 days after contamination.

With `CC(=NOC(C)C)c1ccc(-c2ccccc2NC(=O)c2c(C(F)F)nn(C)c2Cl)cc1` [Example 1], the Eff. % in data set [1] is 98%; in data set [2], 75%; in data set [3] it was 100%; in data set [4] it was 100%. The logP in [5] was 5.03[a].

As to `C#CCON=Cc1ccc(-c2ccccc2NC(=O)c2c(C(F)F)nn(C)c2Cl)cc1` [Example 5], the Eff. % in [6] came out at 88%; in data set [7], 100%; in [8], 86%; in data set [9], 90%; in [1], 100%; in [3], 100%. Moreover, the Eff. % in data set [4] was 100%. In addition, in [5], the logP was 3.79[a].

For the compound `C#CCON=C(C)c1ccc(-c2ccccc2NC(=O)c2c(C(F)F)nn(C)c2F)cc1` [Example 12], the Eff. % in [6] is 97%; in [7], 85%; in data set [8], 80%; in [1], 98%; in [2], 75%; in data set [3], 96%. For the same compound, in data set [4], the Eff. % was found to be 100%. Besides, in data set [5], the logP was 3.8[a].

In the case of `CCON=Cc1ccc(-c2ccccc2NC(=O)c2c(C(F)F)nn(C)c2Cl)cc1F` [Example 18], the Eff. % in data set [6] is 94%; in data set [7] it was 70%; in data set [8], 100%; in data set [1] it was 97%; in [2], 75%; in [3], 100%. Moreover, the Eff. % in data set [4] turned out to be 100%. Also, the logP in data set [5] was 4.22[a].

`CC#CCON=Cc1ccc(-c2ccccc2NC(=O)c2c(C(F)F)nn(C)c2F)cc1` [Example 21]: the Eff. % in data set [7] is given as 98%; in data set [8], 88%; in [1] it was 94%; in data set [2], 96%; in [3], 100%; in data set [4], 100%. In addition, in data set [5], the logP was 3.87[a].

In the case of `CC#CCON=Cc1ccc(-c2ccccc2NC(=O)c2c(C(F)F)nn(C)c2Cl)cc1` [Example 22], the Eff. % in data set [6] turned out to be 75%; in data set [7], 98%; in data set [1], 98%; in data set [2], 96%; in [3], 100%; in data set [4], 100%. For the same compound, in data set [5], the logP is 4.13[a].

With `CON=Cc1c(F)cc(-c2ccccc2NC(=O)c2c(C(F)F)nn(C)c2Cl)cc1F` [Example 23], the Eff. % in data set [6] came out at 97%; in data set [8], 97%; in data set [1], 98%; in data set [2], 97%; in data set [3], 100%; in [4], 100%. Moreover, in [5], the logP is 3.61[a].

Consider `CON=Cc1ccc(-c2ccccc2NC(=O)c2c(C(F)F)nn(C)c2Cl)cc1C(F)(F)F` [Example 24], for which the Eff. % in data set [6] came to 92%; in data set [8] it was 97%; in data set [1] it was 100%; in [2] it was 92%; in [3], 100%; in data set [4], 100%. Besides, the logP in [5] is 4.25[a].

On to `CON=Cc1ccc(-c2ccccc2NC(=O)c2c(C(F)F)nn(C)c2Cl)cc1C` [Example 25], for which the Eff. % in data set [6] was determined as 94%; in data set [7] it was 98%; in data set [8] it was 100%; in data set [1] it was 100%; in data set [2] it was 75%; in data set [3], 100%. Also, the Eff. % in [4] turned out to be 94%. In addition, the logP in data set [5] was 4.04[a].

Take `CON=Cc1ccc(-c2c(F)cccc2NC(=O)c2c(C(F)F)nn(C)c2Cl)cc1` [Example 28]: the Eff. % in [6] is given as 92%; in [8], 93%; in data set [1] it was 89%; in data set [2], 92%; in [3], 100%; in data set [4], 100%. The logP in data set [5] is 3.76[a].

In the case of `CON=Cc1ccc(-c2cc(F)ccc2NC(=O)c2c(C(F)F)nn(C)c2Cl)cc1` [Example 30], the Eff. % in data set [6] worked out at 97%; in data set [8], 93%; in data set [1], 100%; in data set [2], 97%; in data set [3] it was 100%; in [4], 100%. The logP in [5] was 3.66[a].

As for `C#CCON=C(C)c1ccc(-c2cccc(NC(=O)c3c(C(F)F)nn(C)c3Cl)c2)cc1` [Example 35], the Eff. % in data set [2] worked out at 75%; in [4], 98%. For the same compound, the logP in [5] was 4.01[a].

Take `CCON=Cc1ccc(-c2ccccc2NC(=O)c2c(C(F)F)nn(C)c2Cl)cc1C` [Example 39]: the Eff. % is recorded as 94% in data set [6]; 99% in [7]; 100% in data set [8]; 97% in data set [1]; 92% in data set [2]; 100% in data set [3]. In data set [4], this compound registered an Eff. % of 100%. In data set [5], the logP is 4.48[a].

For `CCON=Cc1ccc(-c2c(F)cccc2NC(=O)c2c(C(F)F)nn(C)c2Cl)cc1` [Example 40], the Eff. % is given as 94% in data set [6]; 90% in data set [8]; 97% in data set [1]; 75% in data set [2]; 100% in data set [3]; 100% in data set [4]. Further, the logP in data set [5] is 4.18[a].

Source of the values: patent US9765034B2, “5-halogenopyrazole biphenylcarboxamides” (BAYER CROPSCIENCE AG, priority 2012, dated 2017).
